Columns and labels:
[1] = tested on: E. coli ATCC 25922 (AECO001); assay: MIC assay, CLSI broth microdilution; format: cell-based; conditions: Escherichia coli; ATCC25922; Mueller Hinton Broth, 35C, 20 hours
Procedure: (§1) Minimum inhibitory concentrations (MIC) were determined by reference Clinical and Laboratory Standards Institute (CLSI) broth microdilution methods per M7-A7 [2006]. Quality control ranges utilizing E. coli ATCC 25922, P. aeruginosa ATCC 27853 and S. aureus ATCC 29213, and interpretive criteria for comparator agents were as published in CLSI M100-S17 [2007]. Briefly, serial two-fold dilutions of the test compounds were prepared at 2× concentration in Mueller Hinton Broth. The compound dilutions were mixed in 96-well assay plates in a 1:1 ratio with bacterial inoculum. The inoculum was prepared by suspension of a colony from an agar plate that was prepared the previous day. Bacteria were suspended in sterile saline and added to each assay plate to obtain a final concentration of 5×10^5 CFU/mL. The plates were incubated at 35C for 20 hours in ambient air.

[2] = tested on: P. aeruginosa ATCC 27853 (APAE001); assay: MIC assay, CLSI broth microdilution; format: cell-based; conditions: Pseudomonas aeruginosa; ATCC27853; Mueller Hinton Broth, 35C, 20 hours
Procedure: as §1

- MIC [1]: ≤ 1 µg/mL
- MIC [2]: ≤ 1 µg/mL
Structure (SMILES): NCC[C@H](O)C(=O)N[C@@H]1C[C@H](N)[C@@H](O[C@H]2O[C@H](CNCCO)CC[C@H]2N)[C@H](O[C@@H]2O[C@H](CO)[C@@H](O[C@H]3O[C@@H](CN)[C@@H](O)[C@H](O)[C@H]3N)[C@H]2O)[C@H]1O [1/20]

— US8372813B2, “Antibacterial aminoglycoside analogs” (Achaogen, Inc., priority 2008, dated 2013)
